Assays:
MarR [1] = target: T1, MarR (Escherichia coli, UniProt P27245); conditions: at millimolar concentrations; cited from earlier work
MarR [2] = target: T1, MarR; conditions: at millimolar concentrations; cited from earlier work; remark: listed apart in the source
[3] = target: MarR, regulator of multiple antibiotic resistance of Escherichia coli (wild type, expressed from pMarR-WT) (Escherichia coli); assay: X-ray co-crystal structure of MarR dimer with salicylate

T1 sequence (P27245 whole entry): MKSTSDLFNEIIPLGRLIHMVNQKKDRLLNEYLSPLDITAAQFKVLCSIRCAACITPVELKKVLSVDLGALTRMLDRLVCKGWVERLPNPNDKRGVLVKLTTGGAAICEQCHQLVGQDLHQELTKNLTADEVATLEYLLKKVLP

Compound | inhibition of MarR activity in whole cells (MarR [1]) | inhibition of MarR activity in vitro (MarR [2]) | buried surface area (N-/C-terminal hydrophobic core) [3] [Å^2] | total buried surface area [3] [Å^2]
O=C([O-])c1ccccc1O.[Na+] [sodium salicylate] | inhibit MarR activity | inhibit MarR activity | – | –
MarR, regulator of multiple antibiotic resistance of Escherichia coli (wild type, expressed from pMarR-WT) | – | – | 3570 | 3700
